Experimental data from PubChem BioAssay (NCI).
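1) Cells in 96-well plates. 2) Compound, 48 h, 5 concentrations. 3) Linear interpolation between surrounding doses. 4) Unreached endpoint = highest concentration. TGI: concentration producing complete growth inhibition.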

What was measured:
Test in all cases: NCI anticancer screen, dose series, 48 h
[1] = test system: A498 renal
[2] = test system: HCT-116 colon
[3] = test system: IGROV1 ovarian
[4] = test system: M14 melanoma
[5] = test system: NCI-H23 lung
[6] = test system: OVCAR-8 ovarian
[7] = test system: SNB-19 CNS
[8] = test system: K-562 leukemia
[9] = test system: RXF 393 renal
[10] = test system: SR leukemia

| Compound | TGI [1] [µM] | TGI [2] [µM] | TGI [3] [µM] | TGI [4] [µM] | TGI [5] [µM] | TGI [6] [µM] | TGI [7] [µM] | TGI [8] [µM] | TGI [9] [µM] | TGI [10] [µM] |
| --- | --- | --- | --- | --- | --- | --- | --- | --- | --- | --- |
| Nc1nc(Nc2cc(F)c(Cl)c(F)c2)cc(=O)[nH]1 | > 100 | > 100 | > 100 | > 100 | > 100 | > 100 | > 100 |  |  |  |
| Oc1[nH]c2ccccc2c1N=Nc1nc(-c2ccccc2)cs1 |  | > 100 | > 100 | > 100 | > 100 | > 100 | > 100 |  |  |  |
| O=C(c1ccccc1)n1c2ccc(Br)cc2c2nc3ccccc3nc21 |  | > 100 | > 100 | > 100 | > 100 | > 100 | > 100 | > 100 | > 100 | > 100 |
| CC(C)=C[C@@H]1C[C@H](C)[C@H]2CC[C@H](C)[C@H]3C(=O)C(O)=C(C)C(=O)[C@]123 | > 100 | > 100 | > 100 | > 100 | > 100 | > 100 | > 100 | > 100 |  |  |
| Cc1nnc(N)s/c1=N/O | > 100 | > 100 | > 100 | > 100 | > 100 | > 100 | > 100 | > 100 | > 100 |  |
| CNc1nc(OC)c2c(n1)[n+](C)cn2C | > 100 | > 100 | > 100 | > 100 | > 100 | > 100 | > 100 | > 100 | > 100 |  |
| CCOC(=O)N/N=C(/N)Cc1ccc(Cl)cc1 |  | > 100 | > 100 | > 100 | > 100 | > 100 | > 100 | > 100 | > 100 |  |
| NS(=O)(=O)c1cc2c(cc1Cl)NC(C(=O)NNC(=O)c1ccncc1)=NS2(=O)=O |  | > 100 | > 100 | > 100 | > 100 | > 100 | > 100 |  | > 100 | > 100 |
| CCCCC(C)(C/C=C/[C@@H]1[C@@H](C(O)CCCCCC(=O)OC)C(=O)C[C@H]1O[Si](C)(C)C(C)(C)C)O[Si](C)(C)C (stereo not given in full) |  | > 100 | > 100 | > 100 | > 100 | > 100 | > 100 | > 100 | > 100 | > 100 |
| O=C(Nc1nc2ccc([N+](=O)[O-])cc2s1)c1cc([N+](=O)[O-])ccc1Cl | 7.42 | 5.33 |  |  | 6.92 | 9.57 |  |  | 15.5 |  |
| Cc1cccc2c1Oc1ncccc1C2NC(=O)CN(C)C (stereo not given) |  |  | > 10 | > 10 | > 10 | > 10 | > 10 | > 10 |  | > 10 |
| CCOC(=O)Oc1ccc2[nH]c3c(C)cc(N)c(C)c3c2c1 |  | > 100 |  | > 100 | > 100 | > 100 | > 100 | > 100 |  | > 100 |
| CC(=O)Oc1c(OC(C)C)cc(=O)n2ccsc12 | > 100 | > 100 | > 100 | > 100 | > 100 | > 100 | > 100 | > 100 | > 100 |  |
| O=[N+]([O-])c1cccc2c1[nH]c1c(-c3ccccc3)nccc12 | 12.9 | 11.2 | 11.4 |  | 8.48 | 9.32 | > 100 | > 100 | 12.4 |  |
| O=C(Cn1c(-c2ccccc2)cc2ccccc21)N1CCOCC1 | > 100 | > 100 | > 100 | > 100 | > 100 | > 100 | > 100 | > 100 | > 100 |  |
| CCOC(=O)c1sc2nc(SC)nc3c2c1NCN3c1ccccc1Cl | > 100 | > 100 | > 100 | > 100 | > 100 | > 100 | > 100 | > 100 | 73 |  |
| O=C1C[C@@]23CCC4(CC2=CCC[C@H]3O1)OCCO4 | > 100 | > 100 | > 100 | > 100 | > 100 |  | > 100 | > 100 | > 100 | > 100 |
| O=C1CSC(c2cccc(Oc3ccccc3)c2)N1c1cc(Cl)ccc1Cl (stereo not given) | 70.7 | 34.4 |  | 50.5 | 98.2 | 62.5 | 56.6 | 50.1 | 40.3 | 44 |
| O=P1(C(O)c2ccccc2)N(Cc2ccccc2)[C@@H]2CCCC[C@H]2N1Cc1ccccc1 (stereo not given in full) |  | > 100 | 49.9 | 58.5 | > 100 | > 100 | > 100 | > 100 | > 100 | 49.9 |
| CC(C)[C@H](NC(=O)OCc1ccccc1)C(=O)N[C@H](/C=C/C(=O)OC(C)(C)C)CO | > 100 | > 100 | > 100 | > 100 | > 100 | > 100 | > 100 |  | > 100 | > 100 |
| C/C(=C\CNc1ncnc2c1ncn2CCC#N)CO |  | > 100 | > 100 | > 100 | > 100 | > 100 | > 100 | > 100 | > 100 | > 100 |
| Nc1nc2c(c(-c3ccc(F)cc3)n1)COC/C2=C\c1ccc(F)cc1 | > 100 |  | > 100 | > 100 | > 100 | > 100 | > 100 | > 100 | > 100 | 43.2 |
| CC(=O)OCc1cc2c(s1)C(=O)c1sccc1C2=O | 3.23 | 3.38 | 2.79 | < 0.0189 | 0.0378 | 0.576 | 0.317 | > 100 | 0.31 |  |
| CCCSC1=N/C(=C\c2ccco2)C(=O)N1 | > 100 | > 100 | > 100 | > 100 | > 100 | > 100 | > 100 |  | > 100 |  |
| COc1ccc(-c2cc(-c3ccc(Nc4ccnc5cc(C(F)(F)F)ccc45)cc3)nc(N)c2C#N)c2ccccc12 | > 100 | > 100 |  | > 100 | > 100 |  | > 100 |  | > 100 | > 100 |
